Source: paper doi:10.1101/2023.03.24.534094v2 (biorxiv, 2023)
Read-outs that look alike come from different tables or passages of the source.

Legend:
Assay in all cases: biochemical
[1] = biological target: DAPK1 (Homo sapiens, UniProt P53355)
[2] = biological target: FGFR2 (Homo sapiens, UniProt P21802)
[3] = biological target: T1, DYRK2 (Homo sapiens, UniProt Q92630)
T1 sequence (Q92630 1-601): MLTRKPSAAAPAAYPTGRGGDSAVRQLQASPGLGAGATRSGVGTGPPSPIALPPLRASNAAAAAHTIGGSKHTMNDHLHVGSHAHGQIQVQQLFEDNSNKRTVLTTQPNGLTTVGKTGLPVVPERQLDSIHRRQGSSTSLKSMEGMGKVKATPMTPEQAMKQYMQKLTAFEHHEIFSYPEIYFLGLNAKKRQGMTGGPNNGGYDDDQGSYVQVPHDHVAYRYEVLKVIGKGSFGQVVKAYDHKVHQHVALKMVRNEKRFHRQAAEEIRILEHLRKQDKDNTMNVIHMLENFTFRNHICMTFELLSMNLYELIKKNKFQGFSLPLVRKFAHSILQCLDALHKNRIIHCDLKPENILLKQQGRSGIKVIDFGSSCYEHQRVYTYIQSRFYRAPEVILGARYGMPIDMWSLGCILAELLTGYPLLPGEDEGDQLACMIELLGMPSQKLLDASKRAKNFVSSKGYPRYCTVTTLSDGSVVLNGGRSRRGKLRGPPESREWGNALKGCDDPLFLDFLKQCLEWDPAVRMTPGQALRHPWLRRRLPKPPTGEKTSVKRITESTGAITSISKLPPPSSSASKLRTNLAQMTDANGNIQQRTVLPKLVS

[4] = biological target: T2, DCAMKL1 (Homo sapiens, UniProt O15075)
T2 sequence (O15075 1-740): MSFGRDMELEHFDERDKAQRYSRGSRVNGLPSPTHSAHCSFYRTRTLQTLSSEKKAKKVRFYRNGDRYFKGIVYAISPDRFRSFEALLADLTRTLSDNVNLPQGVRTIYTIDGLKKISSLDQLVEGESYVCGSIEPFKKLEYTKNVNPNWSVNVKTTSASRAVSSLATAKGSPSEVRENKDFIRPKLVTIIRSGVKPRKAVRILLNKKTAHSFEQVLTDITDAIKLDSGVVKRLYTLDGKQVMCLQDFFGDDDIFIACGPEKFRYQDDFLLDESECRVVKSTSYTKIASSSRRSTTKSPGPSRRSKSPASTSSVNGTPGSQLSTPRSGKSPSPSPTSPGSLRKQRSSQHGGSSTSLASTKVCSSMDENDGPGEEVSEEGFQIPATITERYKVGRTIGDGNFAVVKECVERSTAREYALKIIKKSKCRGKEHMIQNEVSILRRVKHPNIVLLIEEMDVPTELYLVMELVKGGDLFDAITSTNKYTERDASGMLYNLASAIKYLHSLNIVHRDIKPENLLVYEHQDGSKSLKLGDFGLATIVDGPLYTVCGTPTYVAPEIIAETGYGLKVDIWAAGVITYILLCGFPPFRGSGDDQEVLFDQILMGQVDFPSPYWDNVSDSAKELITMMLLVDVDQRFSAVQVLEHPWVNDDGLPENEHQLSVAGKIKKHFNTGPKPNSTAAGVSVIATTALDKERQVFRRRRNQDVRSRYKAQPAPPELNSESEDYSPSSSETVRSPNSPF

[5] = biological target: CDK2 (Homo sapiens, UniProt P24941)
[6] = biological target: T3, TLK1 (Homo sapiens, UniProt Q9UKI8)
T3 sequence (Q9UKI8 1-766): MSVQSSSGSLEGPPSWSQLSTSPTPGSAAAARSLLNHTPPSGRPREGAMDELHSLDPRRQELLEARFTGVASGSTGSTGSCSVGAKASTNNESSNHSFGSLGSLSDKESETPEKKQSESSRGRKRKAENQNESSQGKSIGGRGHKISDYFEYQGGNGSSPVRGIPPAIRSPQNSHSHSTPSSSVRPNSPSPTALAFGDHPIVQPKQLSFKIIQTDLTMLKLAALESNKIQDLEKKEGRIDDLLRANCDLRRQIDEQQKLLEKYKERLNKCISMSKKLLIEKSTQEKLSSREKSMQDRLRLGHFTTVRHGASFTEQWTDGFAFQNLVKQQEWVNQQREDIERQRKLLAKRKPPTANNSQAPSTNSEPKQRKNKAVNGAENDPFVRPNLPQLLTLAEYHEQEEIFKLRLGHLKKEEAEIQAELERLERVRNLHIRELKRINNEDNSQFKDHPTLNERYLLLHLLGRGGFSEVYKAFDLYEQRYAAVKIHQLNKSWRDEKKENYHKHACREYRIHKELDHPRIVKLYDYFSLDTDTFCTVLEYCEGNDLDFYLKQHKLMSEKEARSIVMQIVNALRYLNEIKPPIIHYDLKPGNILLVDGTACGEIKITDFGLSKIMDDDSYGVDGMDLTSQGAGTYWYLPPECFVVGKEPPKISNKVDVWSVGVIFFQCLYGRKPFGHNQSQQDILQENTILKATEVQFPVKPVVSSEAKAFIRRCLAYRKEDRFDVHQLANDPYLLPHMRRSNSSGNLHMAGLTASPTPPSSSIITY

[7] = biological target: HIPK2 (Homo sapiens, UniProt Q9H2X6)
[8] = biological target: CDKL1 (Homo sapiens, UniProt Q00532)
[9] = biological target: FLT1 (Homo sapiens, UniProt P17948)
[10] = biological target: p38a (Homo sapiens, UniProt Q16539)
Chain of p38a (Q16539 whole entry): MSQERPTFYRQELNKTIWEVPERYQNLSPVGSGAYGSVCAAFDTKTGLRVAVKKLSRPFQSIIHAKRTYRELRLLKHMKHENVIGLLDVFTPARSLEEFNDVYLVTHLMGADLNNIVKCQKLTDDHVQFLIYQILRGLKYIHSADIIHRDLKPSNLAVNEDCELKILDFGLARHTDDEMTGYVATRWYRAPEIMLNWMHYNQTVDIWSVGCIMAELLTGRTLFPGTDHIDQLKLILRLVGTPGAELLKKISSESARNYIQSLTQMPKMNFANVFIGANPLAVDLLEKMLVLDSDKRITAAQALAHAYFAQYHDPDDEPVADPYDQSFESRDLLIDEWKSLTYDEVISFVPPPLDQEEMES

Chain of FGFR2 (P21802 whole entry): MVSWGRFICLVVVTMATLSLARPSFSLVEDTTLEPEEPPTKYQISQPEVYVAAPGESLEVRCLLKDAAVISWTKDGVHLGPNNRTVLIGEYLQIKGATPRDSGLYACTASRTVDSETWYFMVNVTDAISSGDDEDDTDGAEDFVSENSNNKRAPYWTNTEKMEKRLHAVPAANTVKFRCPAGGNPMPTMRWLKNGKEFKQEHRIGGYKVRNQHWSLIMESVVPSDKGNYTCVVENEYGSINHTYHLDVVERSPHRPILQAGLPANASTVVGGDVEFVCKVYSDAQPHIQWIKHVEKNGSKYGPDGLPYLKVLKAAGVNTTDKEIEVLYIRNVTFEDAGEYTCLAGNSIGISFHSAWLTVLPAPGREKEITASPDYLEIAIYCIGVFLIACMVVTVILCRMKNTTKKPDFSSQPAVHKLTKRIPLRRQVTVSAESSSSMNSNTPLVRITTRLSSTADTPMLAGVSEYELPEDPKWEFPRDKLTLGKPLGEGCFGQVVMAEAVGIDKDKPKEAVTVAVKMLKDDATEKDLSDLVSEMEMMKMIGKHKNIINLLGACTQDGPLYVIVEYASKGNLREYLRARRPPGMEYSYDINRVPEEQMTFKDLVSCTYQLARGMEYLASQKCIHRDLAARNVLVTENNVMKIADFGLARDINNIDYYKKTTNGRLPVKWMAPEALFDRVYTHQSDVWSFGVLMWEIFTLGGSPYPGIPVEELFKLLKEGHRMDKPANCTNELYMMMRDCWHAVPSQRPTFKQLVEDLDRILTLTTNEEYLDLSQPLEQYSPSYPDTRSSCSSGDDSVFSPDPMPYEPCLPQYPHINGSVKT
Chain of DAPK1 (P53355 whole entry): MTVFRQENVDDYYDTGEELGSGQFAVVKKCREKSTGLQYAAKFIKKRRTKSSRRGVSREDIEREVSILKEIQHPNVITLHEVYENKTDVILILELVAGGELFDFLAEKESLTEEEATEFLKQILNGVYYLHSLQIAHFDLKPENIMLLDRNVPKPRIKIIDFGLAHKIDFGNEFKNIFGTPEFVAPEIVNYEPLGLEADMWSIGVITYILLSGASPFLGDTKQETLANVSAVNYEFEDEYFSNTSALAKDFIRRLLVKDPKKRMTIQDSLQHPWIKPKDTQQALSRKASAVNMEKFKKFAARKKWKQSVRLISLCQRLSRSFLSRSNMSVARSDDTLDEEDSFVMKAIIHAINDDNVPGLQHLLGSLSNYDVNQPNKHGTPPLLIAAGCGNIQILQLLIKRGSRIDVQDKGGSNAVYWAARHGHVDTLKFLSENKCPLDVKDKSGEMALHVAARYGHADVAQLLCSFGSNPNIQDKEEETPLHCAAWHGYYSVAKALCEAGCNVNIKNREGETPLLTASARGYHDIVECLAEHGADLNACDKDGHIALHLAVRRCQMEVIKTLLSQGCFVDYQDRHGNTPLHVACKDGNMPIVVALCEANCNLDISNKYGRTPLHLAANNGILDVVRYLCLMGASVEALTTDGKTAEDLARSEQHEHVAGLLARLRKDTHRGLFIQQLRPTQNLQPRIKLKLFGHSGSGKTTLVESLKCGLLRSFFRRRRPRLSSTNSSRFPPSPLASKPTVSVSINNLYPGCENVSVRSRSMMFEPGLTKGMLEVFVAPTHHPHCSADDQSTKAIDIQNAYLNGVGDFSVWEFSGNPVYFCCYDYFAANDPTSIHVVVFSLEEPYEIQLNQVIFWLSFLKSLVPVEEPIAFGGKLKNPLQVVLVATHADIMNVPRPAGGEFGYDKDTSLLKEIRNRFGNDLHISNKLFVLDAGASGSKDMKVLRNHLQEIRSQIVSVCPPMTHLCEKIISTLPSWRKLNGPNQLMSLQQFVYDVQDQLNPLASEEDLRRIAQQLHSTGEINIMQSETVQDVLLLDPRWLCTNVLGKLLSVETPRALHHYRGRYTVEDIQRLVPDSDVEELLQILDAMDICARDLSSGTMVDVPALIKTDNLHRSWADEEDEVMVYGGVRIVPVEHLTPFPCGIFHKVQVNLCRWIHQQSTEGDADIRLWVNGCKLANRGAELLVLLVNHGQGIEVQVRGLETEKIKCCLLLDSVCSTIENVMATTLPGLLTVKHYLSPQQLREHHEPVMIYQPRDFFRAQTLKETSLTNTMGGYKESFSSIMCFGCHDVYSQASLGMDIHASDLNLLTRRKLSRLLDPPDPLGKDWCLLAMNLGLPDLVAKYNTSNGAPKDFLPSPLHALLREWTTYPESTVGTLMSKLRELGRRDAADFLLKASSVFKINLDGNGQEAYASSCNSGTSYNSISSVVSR
Chain of FLT1 (P17948 whole entry): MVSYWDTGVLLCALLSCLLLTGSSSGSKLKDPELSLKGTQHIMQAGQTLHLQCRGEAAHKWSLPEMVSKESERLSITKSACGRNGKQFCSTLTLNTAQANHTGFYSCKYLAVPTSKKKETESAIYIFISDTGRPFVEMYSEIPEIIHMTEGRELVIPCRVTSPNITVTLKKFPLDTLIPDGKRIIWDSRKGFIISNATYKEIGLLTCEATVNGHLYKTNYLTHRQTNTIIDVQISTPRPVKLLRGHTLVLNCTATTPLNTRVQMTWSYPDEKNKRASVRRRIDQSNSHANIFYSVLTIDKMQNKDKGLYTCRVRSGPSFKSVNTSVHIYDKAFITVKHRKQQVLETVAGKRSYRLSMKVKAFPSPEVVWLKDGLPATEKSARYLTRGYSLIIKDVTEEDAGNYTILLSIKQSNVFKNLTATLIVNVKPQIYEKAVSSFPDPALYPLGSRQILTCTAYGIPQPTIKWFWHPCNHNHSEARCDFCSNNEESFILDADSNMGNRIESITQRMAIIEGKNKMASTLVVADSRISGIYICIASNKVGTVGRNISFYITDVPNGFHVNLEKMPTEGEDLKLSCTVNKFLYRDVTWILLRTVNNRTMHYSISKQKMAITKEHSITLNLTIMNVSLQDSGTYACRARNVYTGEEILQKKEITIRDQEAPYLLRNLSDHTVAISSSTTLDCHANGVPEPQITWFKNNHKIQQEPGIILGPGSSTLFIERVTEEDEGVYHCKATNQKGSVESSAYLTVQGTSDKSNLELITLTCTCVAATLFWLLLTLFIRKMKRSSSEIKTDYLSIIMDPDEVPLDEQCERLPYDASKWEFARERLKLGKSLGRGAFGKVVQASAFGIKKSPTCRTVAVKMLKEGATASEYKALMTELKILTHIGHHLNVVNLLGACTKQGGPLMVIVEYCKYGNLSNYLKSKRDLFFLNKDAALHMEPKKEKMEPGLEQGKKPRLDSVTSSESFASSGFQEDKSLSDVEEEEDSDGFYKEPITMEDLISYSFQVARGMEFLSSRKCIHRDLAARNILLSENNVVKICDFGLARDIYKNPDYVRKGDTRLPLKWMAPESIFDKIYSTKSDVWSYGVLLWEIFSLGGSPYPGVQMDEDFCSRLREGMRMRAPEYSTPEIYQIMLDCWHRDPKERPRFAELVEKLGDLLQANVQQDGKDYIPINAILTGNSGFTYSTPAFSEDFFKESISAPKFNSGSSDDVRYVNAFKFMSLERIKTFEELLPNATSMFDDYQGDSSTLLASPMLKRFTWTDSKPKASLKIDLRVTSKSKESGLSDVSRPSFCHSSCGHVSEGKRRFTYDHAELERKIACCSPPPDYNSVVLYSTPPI
Chain of CDKL1 (Q00532 whole entry): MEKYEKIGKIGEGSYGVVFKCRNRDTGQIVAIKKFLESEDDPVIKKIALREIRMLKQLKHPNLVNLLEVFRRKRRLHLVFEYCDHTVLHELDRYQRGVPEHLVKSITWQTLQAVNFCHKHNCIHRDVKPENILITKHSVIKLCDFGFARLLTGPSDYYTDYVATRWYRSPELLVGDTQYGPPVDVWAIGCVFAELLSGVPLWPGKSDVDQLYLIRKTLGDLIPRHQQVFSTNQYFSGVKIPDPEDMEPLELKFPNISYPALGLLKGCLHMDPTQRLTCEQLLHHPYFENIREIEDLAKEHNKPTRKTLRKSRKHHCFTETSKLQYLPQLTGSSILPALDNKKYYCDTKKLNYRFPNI

CNc1ncc2cc(-c3cc(Br)ccc3Cl)c(=O)n(CCCCN)c2n1 [compound 6, 8-(4-Aminobutyl)-6-(5-bromo-2-chlorophenyl)-2-(methylamino)pyrido[2,3-d]pyrimidin-7(8H)-one]
ΔTm at 10 µM ([1]; read-out: dTm 6): -0.2 °C | ΔTm at 10 µM ([2]; read-out: dTm 6): 4.1 °C | ΔTm at 10 µM ([3]; read-out: dTm 6): -0.1 °C | ΔTm at 10 µM ([4]; read-out: dTm 6): -0.5 °C | ΔTm at 10 µM ([5]; read-out: dTm 6): 0.5 °C | ΔTm at 10 µM ([6]; read-out: dTm 6): 0 °C | ΔTm at 10 µM ([7]; read-out: dTm 6): 0.2 °C | ΔTm at 10 µM ([8]; read-out: dTm 6): 0 °C | ΔTm at 10 µM ([9]; read-out: dTm 6): 6 °C | ΔTm at 10 µM ([10]; read-out: dTm 6): 5.6 °C

CNc1ncc2cc(-c3cc(F)ccc3F)c(=O)n(CCCCN)c2n1 [compound 5, 8-(4-Aminobutyl)-6-(2,5-difluorophenyl)-2-(methylamino)pyrido[2,3-d]pyrimidin-7(8H)-one]
ΔTm at 10 µM ([1]; read-out: dTm MR22 (5)): -0.7 °C | ΔTm at 10 µM ([2]; read-out: dTm MR22 (5)): 3.7 °C | ΔTm at 10 µM ([3]; read-out: dTm MR22 (5)): 0.2 °C | ΔTm at 10 µM ([5]; read-out: dTm MR22 (5)): 0.7 °C | ΔTm at 10 µM ([6]; read-out: dTm MR22 (5)): -1.3 °C | ΔTm at 10 µM ([7]; read-out: dTm MR22 (5)): 0.1 °C | ΔTm at 10 µM ([8]; read-out: dTm MR22 (5)): 0.5 °C | ΔTm at 10 µM ([9]; read-out: dTm MR22 (5)): 4.6 °C | ΔTm at 10 µM ([10]; read-out: dTm MR22 (5)): -0.6 °C

CNc1ncc2cc(-c3ccc(-c4cccc(C)n4)cc3Cl)c(=O)n(CC3OCC(N)CO3)c2n1 (stereo not drawn) [compound 2, G-5555]
dTm G-5555 (2) ([1]; 10 µM, binder): -1.0 °C | dTm G-5555 (2) ([2]; 10 µM, binder): 0.7 °C | dTm G-5555 (2) ([3]; 10 µM, binder): -0.1 °C | dTm G-5555 (2) ([4]; 10 µM, binder): 0.3 °C | dTm G-5555 (2) ([5]; 10 µM, binder): 0.5 °C | dTm G-5555 (2) ([6]; 10 µM, binder): -0.3 °C | dTm G-5555 (2) ([8]; 10 µM, binder): -0.1 °C | dTm G-5555 (2) ([9]; 10 µM, binder): 1.7 °C | dTm G-5555 (2) ([10]; 10 µM, binder): 1.4 °C

CNc1ncc2cc(-c3ccccc3Cl)c(=O)n(CCCCN)c2n1 [compound 4, 8-(4-Aminobutyl)-6-(2-chlorophenyl)-2-(methylamino)pyrido[2,3-d]pyrimidin-7(8H)-one]
ΔTm at 10 µM ([1]; read-out: dTm MR21 (4)): -0.2 °C | ΔTm at 10 µM ([2]; read-out: dTm MR21 (4)): 4.7 °C | ΔTm at 10 µM ([3]; read-out: dTm MR21 (4)): 0 °C | ΔTm at 10 µM ([4]; read-out: dTm MR21 (4)): 0.2 °C | ΔTm at 10 µM ([5]; read-out: dTm MR21 (4)): 0.4 °C | ΔTm at 10 µM ([6]; read-out: dTm MR21 (4)): 0.5 °C | ΔTm at 10 µM ([7]; read-out: dTm MR21 (4)): 0.1 °C | ΔTm at 10 µM ([8]; read-out: dTm MR21 (4)): 0.5 °C | ΔTm at 10 µM ([9]; read-out: dTm MR21 (4)): 5.4 °C | ΔTm at 10 µM ([10]; read-out: dTm MR21 (4)): 8.8 °C

CNc1ncc2cc(-c3cc(Br)ccc3Cl)c(=O)n(C[C@H]3OC[C@H](N)CO3)c2n1 [compound 7, 8-(((2r,5r)-5-Amino-1,3-dioxan-2-yl)methyl)-6-(5-bromo-2-chlorophenyl)-2-(methylamino)pyrido[2,3-d]pyrimidin-7(8H)-one]
ΔTm at 10 µM ([1]; read-out: dTm 7): 0.1 °C | ΔTm at 10 µM ([2]; read-out: dTm 7): 3.7 °C | ΔTm at 10 µM ([3]; read-out: dTm 7): 0 °C | ΔTm at 10 µM ([4]; read-out: dTm 7): 1 °C | ΔTm at 10 µM ([5]; read-out: dTm 7): 0.3 °C | ΔTm at 10 µM ([6]; read-out: dTm 7): 0.9 °C | ΔTm at 10 µM ([7]; read-out: dTm 7): 0.5 °C | ΔTm at 10 µM ([8]; read-out: dTm 7): -0.1 °C | ΔTm at 10 µM ([9]; read-out: dTm 7): 5.4 °C | ΔTm at 10 µM ([10]; read-out: dTm 7): 5.3 °C
